# Reference: patent publication US20040044405A1, “Vascular stent or graft coated or impregnated with protein tyrosine kinase inhibitors and method of using same” (priority 2001, published 2004)
# What was measured:
# PKC = conditions: cited from earlier work
# Porcine coronary VSMCs = assay: Porcine coronary VSMC proliferation, BrdU incorporation ELISA after PDGF stimulation; format: cell-based; conditions: PDGF 20 ng/mL, STI-571, FIG. 1
# Protocol: BrdU was added to the wells for the last 5 hours of the stimulation period.
# [1] = tested on: human coronary artery vascular smooth muscle cells; assay: Migration of human coronary artery vascular smooth muscle cells through porous membrane in response to PDGF; format: cell-based; conditions: PDGF-ββ 20 ng/ml, 24 hrs, normalized to control membranes, FIG. 5
# Protocol: Migration was assayed by counting cells that migrated through a porous membrane (20 μm diameter pores) in 24 hours in response to stimulation with platelet-derived growth factor (PDGF-pp).
# The initial seed density was 4000 cells per filter (0.3 cm^2) in test media with 1% BSA and 20 ng/ml PDGF-ββ. The cells were then incubated in a humidified environment at 37° C., 5% CO2 for 24 hrs. The cells on the top side of the filter were then scraped away. The cells on bottom side of the filters were then fixed with ice-cold methanol for 10 min. The filters were rinsed with PBS and then stained with HarrisAE Hematoxylin stain for 5 min. and again rinsed with PBS.
# The cells were then counted manually under high-power magnification (400×) in quadruplicate.
# [2] = tested on: human coronary artery vascular smooth muscle cells; assay: DNA synthesis in human coronary artery vascular smooth muscle cells, BrdU assay; format: cell-based; conditions: 10% FBS for 48 hours, FIG. 4
# [3] = tested on: Porcine aortic vascular endothelial cells; assay: Porcine aortic vascular endothelial cell proliferation, BrdU incorporation ELISA after VEGF stimulation; format: cell-based; conditions: VEGF 20 ng/mL for 24 hours, STI-571, FIG. 2
# Protocol: Porcine aortic vascular endothelial cells were grown to subconfluence in 96-well plates with DME media containing 10% FBS at 37° C. for 3 to 5 days. […] BrdU was added to the wells for the last 5 hours of the stimulation period. The cells were subsequently dried for 24 hours at 60° C., fixed and denatured, and BrdU incorporation determined using the Roche ELISA described in Example 1.
Compound,inhibitory activity / specificity towards PKC (PKC),proliferation of VSMCs (BrdU incorporation) (Porcine coronary VSMCs),migration of human coronary vascular smooth muscle cells [1],DNA synthesis in human coronary artery vascular smooth muscle cells (BrdU incorporation) [2],proliferation of aortic vascular endothelial cells (BrdU incorporation) [3]
O=C1NC(=O)c2cc(Nc3ccccc3)c(Nc3ccccc3)cc21 [CGP5211],some inhibitory activity,,,,
O=C1NC(=O)c2cc(Nc3ccc(F)cc3)c(Nc3ccc(F)cc3)cc21 [CGP53353],lower specificity towards PKC isozymes,,,,
Cc1ccc(NC(=O)c2ccc(CN3CCN(C)CC3)cc2)cc1Nc1nccc(-c2cccnc2)n1 [STI-571],,inhibited the proliferation of VSMCs in a dose-dependent fashion,inhibits the migration of human coronary vascular smooth muscle cells in a dose-dependent fashion,inhibits DNA synthesis,very minimal inhibitory effect
